Measured values taken from patent EP0558245A1, “Heterobicyclic compounds as antagogists of alpha-1 adrenergic and SHT1A receptors” (priority 1992, dated 1993).
Where a name gives a salt, the structure may show the parent alone. Read-outs that look alike come from different tables or passages of the source.

Key:
[1] = system: noradrenaline induced contraction of urethra; assay: Effects on urethral contractions (noradrenaline-induced) in anaesthetized dogs; assay type: in vivo; details: for ED50: Canis lupus familiaris, iv; for DBP/Urethra ratio: ratio between the active doses (selectivity index), * = non-selective: substantial effect on both urethra and DBP
Excerpt: (§1) In order to monitor systemic blood pressure (BP), a PE catheter was introduced into the aortic arch through the right common carotid artery.
(§2) A collateral of the left femoral vein was cannulated for infusion of anaesthetic, and the right femoral vein was cannulated for administration of drugs. For intrarterial (i.a.) injection of noradrenaline (NA), a PE catheter was introduced into the lower portion of abdominal aorta via the right external iliac artery. Through such procedure, NA was selectively distributed to the lower urinary tract. Via a midline laparotomy, the urinary bladder and proximal urethra were exposed. In order to prevent the filling of the bladder, the two ureters were cannulated and the urine led outside. In order to record the prostatic urethral pressure, a Mikro-tip catheter (6 F) was introduced into the bladder via the external urethral meatus, and withdrawn until the pressure transducer was positioned in the prostatic urethra. A ligature was secured between the neck of the bladder and urethra to isolate the response of the latter and avoid any interaction with the bladder. Another ligature was put around the Mikro-tip catheter at the external urethral meatus, to secure the catheter itself. After a stabilizing period following surgical procedure (30 min), in which arterial and prostatic urethral pressure were continuously monitored as basal values, i.a. administration of NA was made at intervals of 10 min. The dose of NA chosen was such to produce an increase of at least 100% in urethral pressure. The test compounds were administered i.v. in a cumulative manner with intervals of 15-20 min between administrations. I.a. injections of NA were repeated approximately 5 min. after every dosing of test compound. Dose response curves were constructed computing the percentage inhibition to the increase in urethral pressure (NA induced), and the percentage drop in blood pressure produced by the test compound.

[2] = Acute toxicity in mice after intraperitoneal and oral administration; details: mouse, in vivo
How it was run: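 Female albino Swiss mice (20-30 g) dosed i.p. or orally at four log-scaled doses in 0.5% Methocel (10 ml/kg), 4 mice/dose. Mortality recorded at 7 days; LD₅₀ with fiducial limits by Weil's method.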

α₁ receptors = assay: [3H]prazosin binding (α1 receptors), rat cerebral cortex membranes; details: for IC50: rat cerebral cortex crude membranes, [3H]prazosin 0.35 nM, 25°C 30 min, read-out: Receptor Binding IC50 (nM) α1
Experimental: Rat cerebral cortices were homogenized in 50 volumes of original wet weight of ice-cold 50 mM Tris-HCl buffer pH 7.4. The homogenates were centrifuged at 48,000 x g for 10 minutes, and the pellets were resuspended in the same volume of ice-cold buffer, centrifuged and resuspended two more times. The final pellets obtained were resuspended in the same volume of buffer and incubated according to the conditions reported in the table below.
(§3) The incubations were terminated after the appropriate time (see table) by rapid filtration through Whatman GF/B filters using a Brandel cell harvester. The filters were washed twice with 15 ml of ice-cold buffer (see table). The radioactivity retained on the filters was determined by liquid scintillation counting. Nonspecific binding (which amounted generally to 10-30%) was evaluated by adding high concentrations of the specific displacers (see table). All the compounds were initially tested at 1x10⁻⁶ M concentration, and in the presence of significant displacing activity, a complete competition curve was generated (down to a concentration of 10⁻¹¹ M). All the samples were run in triplicate.

diastolic blood pressure = assay: Effects on blood pressure in anaesthetized dogs; assay type: in vivo; details: Canis lupus familiaris, iv
Excerpt: as §1, §2

5HT1A receptors = molecular target: T1, 5HT1A receptors (Rattus norvegicus, UniProt P19327); assay: [3H]8-OH-DPAT binding (5HT1A receptors), rat hippocampus membranes; details: for IC50: rat hippocampus crude membranes, [3H]8-OH-DPAT 1.0 nM, 25°C 30 min, read-out: Receptor Binding IC50 (nM) 5-HT1a
T1 construct: Rat hippocampi were homogenized; from tissue; host or cells: rat hippocampus membranes
T1 sequence (P19327 1-422): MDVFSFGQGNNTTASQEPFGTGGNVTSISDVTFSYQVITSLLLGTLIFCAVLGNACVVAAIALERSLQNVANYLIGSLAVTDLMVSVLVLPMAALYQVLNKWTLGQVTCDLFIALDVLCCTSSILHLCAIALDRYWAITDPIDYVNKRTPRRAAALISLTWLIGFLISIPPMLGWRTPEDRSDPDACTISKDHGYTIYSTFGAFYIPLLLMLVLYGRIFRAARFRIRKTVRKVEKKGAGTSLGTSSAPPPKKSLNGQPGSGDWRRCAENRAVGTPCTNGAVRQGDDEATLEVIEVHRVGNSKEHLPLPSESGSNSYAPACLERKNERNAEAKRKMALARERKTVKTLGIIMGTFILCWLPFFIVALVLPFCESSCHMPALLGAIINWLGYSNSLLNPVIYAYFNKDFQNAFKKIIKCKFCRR
Experimental: Rat hippocampi were homogenized in 50 volumes of original wet weight of ice-cold 50 mM Tris-HCl buffer pH 7.4. The homogenates were centrifuged at 48,000 x g for 10 minutes, and the pellets were resuspended in the same volume of ice-cold buffer, incubated for 10 minutes at 37°C, centrifuged and resuspended two more times. The final pellets obtained were resuspended in the same volume of buffer and incubated according to the conditions reported in the table below.
as §3
The competition curves were always analyzed (to evaluate the IC₅₀ values) by non linear curve fitting of the logistic equation according to the method reported by De Lean et al. (Am. J. Physiol., 235, E97, 1978), utilizing the ALLFIT program [publically available from the National Institutes of Health (N.I.H.) Bethesda, Maryland, USA] written for the IBM PC.

rat bladder strips = assay: K+-induced contractions of rat bladder strips; assay type: cell-based; details: 80 mM KCl, drug added 30 minutes before
Experimental: The whole bladder of the rat was removed and immediately placed in Krebs solution warmed at 37°C. […] Each strip was placed in a 10 ml organ bath and connected, under a constant load of 1 g, to an isometric strain gauge (DY-1 Basile, Comerio, Varese, Italy). […] After a 60 minutes equilibration period the strips were exposed to 80 mM KCl (final concentration). […] When the tonic contraction was stable, the strips were washed and 30 minutes later a new contraction was induced. After having recorded two or more reproducible responses, one concentration of the tested drugs was added to the bath and 30 minutes later a new contraction was induced. The experimental groups consisted of at least two preparations taken from different animals for each concentration of drug tested. The IC₅₀ values of inhibition of agonist-induced contractions were evaluated by linear regression analysis.

[3] = anaesthetized male beagle dogs, i.v. cumulative, active dose in inhibiting by 50% the noradrenaline induced contraction of urethra, read-out: Urethra ED50
[4] = ip, female albino Swiss mice, intraperitoneal, mortality recorded 7 days after administration, read-out: Acute Toxicity in Mice LD50 (mg/kg) i.p.
[5] = female albino Swiss mice, oral, mortality recorded 7 days after administration, read-out: Acute Toxicity in Mice LD50 (mg/kg) p.o.
[6] = anaesthetized male beagle dogs, i.v. cumulative, active dose in lowering diastolic blood pressure by 25%, read-out: DBP ED25
[7] = phasic contraction, read-out: K+ Stimulation of Rat Bladder IC50 (μM) Contractions Phasic
[8] = tonic contraction, read-out: K+ Stimulation of Rat Bladder IC50 (μM) Contractions Tonic

Row | Compound | DBP/Urethra ratio [1] | LD50 at 168 h [2, 4] | LD50 at 168 h [2, 5] | IC50 (α₁ receptors) | IC50 (5HT1A receptors) | IC50 (rat bladder strips; [7]) | IC50 (rat bladder strips; [8]) | other results
1 | COc1ccccc1N1CCN(CCCOC(=O)c2cccc3c(=O)c(C)c(-c4ccccc4)oc23)CC1.Cl.Cl [Example 5, 8-{3-[4-(2-methoxyphenyl)-1-piperazinyl]-propoxycarbonyl}-3-methyl-4-oxo-2-phenyl-4H-1-benzopyran dihydrochloride] | 29.0 | 621 mg/kg | > 3000 mg/kg | 20 nM | 19 nM |  |  | ED50 [1, 3]: 37 µg/kg; ED25 (diastolic blood pressure; [6]): 1070 µg/kg
2 | COc1ccccc1N1CCN(CCC(O)c2cccc3c(=O)c(C)c(-c4ccccc4)oc23)CC1.Cl (stereo not shown) [Example 20, 8-{1-Hydroxy-3-[4-(2-methoxyphenyl)-1-piperazinyl]-propyl}-3-methyl-4-oxo-2-phenyl-4H-1-benzopyran hydrochloride] |  | 297 mg/kg | 594 mg/kg | 169 nM | 85 nM | 2.7 µM | 2.5 µM | 
3 | COc1ccccc1N1CCN(CCNc2cccc3c(=O)c(C)c(-c4ccccc4)oc23)CC1.Cl.Cl [Example 32, 8-{2-[4-(2-methoxyphenyl)-1-piperazinyl]-ethylamino}-3-methyl-4-oxo-2-phenyl-4H-1-benzopyran dihydrochloride] |  | 301 mg/kg | > 2000 mg/kg | 119 nM | 46 nM | 10 µM | > 10 µM | 
4 | COc1ccccc1N1CCN(CCCC(O)c2cccc3c(=O)c(C)c(-c4ccccc4)oc23)CC1.Cl.O (stereo not shown) [Example 21, 8-{1-hydroxy-4-[4-(2-methoxyphenyl)-1-piperazinyl]-butyl}-3-methyl-4-oxo-2-phenyl-4H-1-benzopyran hydrochloride monohydrate] | 19.2 | 297 mg/kg | 566 mg/kg | 17 nM | 33 nM |  |  | ED50 ([1]; read-out: Urethra ED50 (µg/kg)): 6.6 µg/kg; ED25 (diastolic blood pressure; read-out: DBP ED25 (µg/kg)): 127 µg/kg
5 | COc1ccccc1N1CCN(CCCNc2cccc3c(=O)c(C)c(-c4ccccc4)oc23)CC1 [Example 33, 8-{3-[4-(2-methoxyphenyl)-1-piperazinyl]-propylamino}-3-methyl-4-oxo-2-phenyl-4H-1-benzopyran hydrochloride 2.75-hydrate] |  | 399 mg/kg | > 2000 mg/kg | 17 nM | 38 nM | 10 µM | 10 µM | 
6 | COc1ccccc1N1CCN(CCSCc2cccc3c(=O)c(C)c(-c4ccccc4)oc23)CC1.Cl [Example 29, 8-{2-[4-(2-methoxyphenyl)-1-piperazinyl]-ethylthiomethyl}-3-methyl-4-oxo-2-phenyl-4H-1-benzopyran hydrochloride] |  | 730 mg/kg | > 3000 mg/kg | 86 nM | 45 nM | 10 µM | 10 µM | 
7 | COc1cccc(OC)c1OCCNCCOc1cccc2c(=O)c(C)c(-c3ccccc3)oc12.Cl [Example 44, 8-{2-[2-(2,6-dimethoxyphenoxy)-ethylamino]-ethoxy}-3-methyl-4-oxo-2-phenyl-4H-1-benzopyran hydrochloride] |  | 84 mg/kg | 399 mg/kg | 685 nM | 201 nM | 0.6 µM | 0.5 µM | 
8 | COc1ccccc1N1CCN(CCN(C)C(=O)c2cccc3c(=O)c(C)c(-c4ccccc4)oc23)CC1.Cl [Example 16, 8-{N-methyl-2-[4-(2-methoxyphenyl)-1-piperazinyl]-ethylcarbamoyl}-3-methyl-4-oxo-2-phenyl-4H-1-benzopyran monohydrochloride] |  | 345 mg/kg | 778 mg/kg | 220 nM | 1050 nM | 1.6 µM | 2.2 µM | 
9 | COc1cc2nc(N3CCN(C(=O)c4ccco4)CC3)nc(N)c2cc1OC [Prazosin, 1-(4-amino-6,7-dimethoxy-2-quinazonlinyl)-4-(2-furoyl)-piperazine, reference compound] | 1.8* |  |  |  |  |  |  | ED50 [1, 3]: 3.6 µg/kg; selectivity for the mammalian lower urinary tract (antagonizing urethral contractions versus lowering blood pressure) ([1]; statement in words): do not exhibit such selectivity; ED25 (diastolic blood pressure; read-out: DBP ED25 (µg/kg)): 6.6 µg/kg
10 | COc1ccccc1N1CCN(CCCCNc2cccc3c(=O)c(C)c(-c4ccccc4)oc23)CC1 [Example 34, 8-{4-[4-(2-methoxyphenyl)-1-piperazinyl]-butylamino}-3-methyl-4-oxo-2-phenyl-4H-1-benzopyran hydrochloride hemihydrate] |  | > 500 mg/kg |  | 30 nM | 34 nM | 2.8 µM | 3.6 µM | 
11 | COc1ccccc1N1CCN(CC(O)COc2cccc3c(=O)c(C)c(-c4ccccc4)oc23)CC1.Cl (stereo not shown) [Example 45, 8-{2-hydroxy-3-[4-(2-methoxyphenyl)-1-piperazinyl]-propoxy}-3-methyl-4-oxo-2-phenyl-4H-1-benzopyran hydrochloride] | 11.3 | 329 mg/kg | 1730 mg/kg | 15 nM | 106 nM |  |  | ED50 [1, 3]: 16.4 µg/kg; ED25 (diastolic blood pressure; [6]): 186 µg/kg
12 | Cc1c(-c2ccccc2)oc2c(C(=O)OCCN3CCCCC3)cccc2c1=O [Flavoxate, 8-(2-piperidinoethoxycarbonyl)-3-methyl-4-oxo-2-phenyl-4H-1-benzopyran, reference compound] |  | 385 mg/kg | 808 mg/kg | > 1000 nM | > 1000 nM | 13 µM | 13 µM | affinity for the α₁-adrenergic receptors (α₁ receptors; statement in words): practically devoid of affinity; affinity for the 5HT1A-serotoninergic receptors (5HT1A receptors; statement in words): practically devoid of affinity
13 | COc1ccccc1N1CCN(CCCCOc2cccc3c(=O)c(C)c(-c4ccccc4)oc23)CC1.Cl.Cl | 13.1 |  |  |  |  |  |  | ED50 ([1]; read-out: Urethra ED50 (µg/kg)): 57 µg/kg; LD50 at 168 h ([2]; ip, read-out: Acute Toxicity in Mice LD50 (mg/kg) i.p.): 399 mg/kg; LD50 at 168 h ([2]; po, read-out: Acute Toxicity in Mice LD50 (mg/kg) p.o.): 2240 mg/kg; ED25 (diastolic blood pressure; read-out: DBP ED25 (µg/kg)): 745 µg/kg
14 | Cc1c(-c2ccccc2)oc2c(C(=O)OC(C)(C)CN3CCCCC3)cccc2c1=O.Cl [Terflavoxate, 8-(1,1-dimethyl-2-piperidino-ethoxycarbonyl)-3-methyl-4-oxo-2-phenyl-4H-1-benzopyran hydrochloride, reference compound] |  |  |  |  |  |  |  | ED50 [1, 3]: > 10000 µg/kg; effect on urethral contractions ([1]; statement in words): no effect on urethral contractions; ED25 (diastolic blood pressure; [6]): 6060 µg/kg
